Measured values taken from patent US12153056B2, “Compositions for and methods of diagnosing, prognosing, and treating diabetes” (Washington University, priority 2019, dated 2024).
Entries after “also recorded” stand apart in the source; their conditions may differ. Bridge positions count the residues as written; N and C are the ends. Ends that are not written are not given here.

What was measured:
[1] = system: B:13-21-specific IIT-3 and B:12-20-specific 9B9 T cell hybridoma; experiment: T cell hybridoma responses to C3g7 APCs treated with or without chloroquine and pulsed with antigens; type: cell-based; details: C3g7 APCs with or without 100 μM chloroquine for 2 h
Description: (§1) In FIG. 5i, ConA-stimulated peritoneal macrophages were treated with 0.2 or 1 μM S961 for 1 h at 37° C. and were then cultured with the IIT-3 T cell hybridoma that recognizes the 13-21 peptide, in the presence of serially diluted insulin (19278; Sigma). In FIG. 6e, C3g7 cells were treated with chloroquine for 2 h at 37° C., washed, pulsed with the antigens, and cultured with T cell hybridomas. After incubation for 18 h, the culture supernatants were assayed for IL-2 production.

10E11 CD4 T cells = experiment: Two-photon motility assay of anti-HEL 10E11 T cells in mice given HEL; type: in vivo, NOD mice; details: inguinal lymph nodes, day 3 post transfer, indicated amounts of HEL
Description: (§2) CFSE- or CMTMR-labelled T cells were mixed 1:1 and were injected intravenously. For all the two-photon experiments, 2×10^6 T cells with either label were transferred. […] All the recipient mice were 3-4-week-old female mice unless otherwise mentioned. For experiments in FIG. 4f, FACS-sorted 8F10 T cells from pooled iLNs of 8-10 NOD or B16A mice were adoptively transferred intravenously into 4-6-week old NOD. Rag1÷ recipients (10^5 cells per mouse).
Lymph nodes were removed, attached to coverslips, placed in CO2-independent medium (Gibco) at room temperature and immediately imaged in a perfusion chamber to simulate blood flow (36.5° C. DMEM; 95% O2 and 5% CO2). Two-photon microscopy images were collected using a customized Leica SP8 Two-Photon Microscope (Leica Microsystems) equipped with a 25× and 0.95 numerical aperture water-immersion objective and a Mai Tai HP DeepSee Laser (Spectra-Physics) tuned to 840 nm. Fluorescence emission was guided directly to external hybrid photodetectors (Leica/Hamamatsu). […]
(§3) For cell tracking, two or three regions of one lymph node were randomly selected and cropped. […] We also calculated the meandering index and the motility coefficient for each track. […] The mean track velocities (μm/min) were calculated for individual tracks as previously described^11.

insulin receptor [2] = biological target: T1, insulin receptor (Mus musculus, UniProt P15208); experiment: In vivo blockade of insulin receptor by S961 infusion via osmotic pump, blood glucose; set-up: from tissue; host or cells: whole animal (NOD mice), in vivo; details: S961 20 nMol/week via osmotic pump, 3-week old NOD mice, versus PBS
T1 sequence (P15208 28-748 limits assumed): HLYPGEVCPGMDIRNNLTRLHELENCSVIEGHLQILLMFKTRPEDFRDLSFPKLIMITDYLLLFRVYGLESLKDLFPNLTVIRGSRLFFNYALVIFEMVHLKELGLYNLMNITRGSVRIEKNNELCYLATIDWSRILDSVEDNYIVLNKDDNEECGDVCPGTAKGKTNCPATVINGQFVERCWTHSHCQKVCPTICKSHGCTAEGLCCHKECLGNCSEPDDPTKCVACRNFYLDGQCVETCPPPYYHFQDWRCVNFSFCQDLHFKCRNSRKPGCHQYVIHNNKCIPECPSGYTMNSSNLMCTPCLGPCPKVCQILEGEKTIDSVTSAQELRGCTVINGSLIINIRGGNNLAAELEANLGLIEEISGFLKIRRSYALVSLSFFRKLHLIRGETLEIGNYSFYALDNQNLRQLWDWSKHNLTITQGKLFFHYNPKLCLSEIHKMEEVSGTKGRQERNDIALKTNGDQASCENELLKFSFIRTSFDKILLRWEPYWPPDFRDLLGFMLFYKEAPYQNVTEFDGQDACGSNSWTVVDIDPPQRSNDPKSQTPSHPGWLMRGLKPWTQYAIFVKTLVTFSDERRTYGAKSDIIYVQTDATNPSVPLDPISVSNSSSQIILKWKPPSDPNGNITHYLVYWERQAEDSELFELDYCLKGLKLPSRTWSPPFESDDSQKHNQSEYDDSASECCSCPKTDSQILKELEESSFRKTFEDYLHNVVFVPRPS
T1 sequence (P15208 753-1372 partner limits assumed): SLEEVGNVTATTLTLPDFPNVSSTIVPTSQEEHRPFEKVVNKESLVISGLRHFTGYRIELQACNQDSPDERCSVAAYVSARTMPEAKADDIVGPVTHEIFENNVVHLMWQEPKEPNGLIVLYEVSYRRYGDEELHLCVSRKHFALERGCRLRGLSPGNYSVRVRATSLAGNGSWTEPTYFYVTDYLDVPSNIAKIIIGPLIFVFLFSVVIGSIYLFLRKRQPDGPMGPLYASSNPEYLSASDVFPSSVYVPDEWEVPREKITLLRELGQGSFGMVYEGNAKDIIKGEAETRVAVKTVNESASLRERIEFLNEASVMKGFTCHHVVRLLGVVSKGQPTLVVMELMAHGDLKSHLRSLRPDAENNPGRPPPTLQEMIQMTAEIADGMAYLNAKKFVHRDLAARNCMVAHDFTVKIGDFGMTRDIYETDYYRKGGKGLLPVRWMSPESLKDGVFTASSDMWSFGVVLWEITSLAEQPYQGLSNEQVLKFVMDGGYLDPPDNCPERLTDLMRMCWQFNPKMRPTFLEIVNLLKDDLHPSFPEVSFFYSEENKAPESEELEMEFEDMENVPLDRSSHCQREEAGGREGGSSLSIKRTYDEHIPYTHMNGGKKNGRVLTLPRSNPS
Description: The S961 peptide ([…] (SEQ ID NO: 33)) was synthesized by LifeTein, with an intrachain disulphide bridge between Cys33 and Cys40 (underlined). S961 (20 nMol/week) or control PBS was filled into the Alzet osmotic pump (2001 model, Durect) and inserted subcutaneously in the back of anaesthetized mice through an incision between scapula. Blood glucose levels were monitored twice a day (Chemstrip 2GP; Roche); mice with a level above 250 mg/dl for two consecutive measurements were considered diabetic.

insulin receptor [3] = biological target: T1, insulin receptor; experiment: Two-photon imaging motility assay of transferred T cells in lymph nodes of mice infused with S961 or PBS; type: in vivo, NOD mice; set-up: from tissue; host or cells: whole animal (NOD mice), in vivo; details: S961 infusion versus PBS, day 3 post transfer
Description: as §2
Lymph nodes were removed, attached to coverslips, placed in CO2-independent medium (Gibco) at room temperature and immediately imaged in a perfusion chamber to simulate blood flow (36.5° C. DMEM; 95% O2 and 5% CO2). […] Fluorescence emission was guided directly to external hybrid photodetectors (Leica/Hamamatsu). […]
as §3
The S961 peptide ([…] (SEQ ID NO: 33)) was synthesized by LifeTein, with an intrachain disulphide bridge between Cys33 and Cys40 (underlined). […] Blood glucose levels were monitored twice a day (Chemstrip 2GP; Roche); mice with a level above 250 mg/dl for two consecutive measurements were considered diabetic.

insulin receptor [4] = biological target: T1, insulin receptor; experiment: Antigen presentation assay: ConA-activated peritoneal macrophages treated with S961, insulin pulse, IIT-3 T cell hybridoma; type: cell-based; set-up: endogenous in cells; host or cells: ConA-stimulated peritoneal macrophages; details: 0.2 or 1 μM S961 for 1 h before insulin; IIT-3 hybridoma, IL-2 production
Description: as §1

I-A^g7-expressing APCs = experiment: Intravenous injection of Alexa Fluor 488-conjugated B:9-23, binding to splenic and thymic APCs by flow cytometry; type: in vivo, mice; details: 100 μg intravenously, one hour later
Description: FIG. 11a-FIG. 11c: Characterization of circulating B:9-23 and its localization into lymphoid organs. a, Unmodified synthetic B:9-23 (3 pmol) was spiked into 1 ml PBS, purified using C18 tips, lyophilized, and analyzed by nLC-MS/MS. […] An hour later, spleens and thymi were harvested, digested with liberase and DNase, and binding to splenic and thymic APCs was measured by flow cytometry. b, Representative FACS plots showing the binding of B:9-23 to splenic XCR1^+ and Sirpα^+ dendritic cell (DC) subsets and B cells (top). The bar graph summarizes cumulative results from individual mice (each point), pooled from three independent experiments. ns, not significant; **P<0.05; ***P<0.01; ****P<0.005, two-tailed unpaired Student's t-test. c, Representative FACS plots showing the binding of B:9-23 to thymic XCR1^+ and Sirpα^+ DC subsets and to CD45^− cells expressing MHCII. Data are mean±S.D from five individual mice per strain from two independent experiments.

B:9-23: insulin B-chain peptide, segment 9-23 (SHLVEALYLVCGERG)
need for internal processing for T cell reactivity [1]: not to B:9-23 or B:1-30 require internal processing

HEL: hen egg lysozyme, control antigen recognized by 10E11 CD4 T cells
10E11 T cell velocities (10E11 CD4 T cells): progressive reduction of the 10E11 T cell velocities as the antigen amount increases

S961: insulin receptor antagonist peptide GSLDESFYDWFERQLGGGSGGSSLEEEWAQIQCEVWGRGCPSY (SEQ ID NO: 33), synthesized by LifeTein (disulfide 33-40; listed as Mus musculus)
blood glucose levels (insulin receptor [2]): sustained increase in blood glucose levels | motility arrest of 8F10 T cells (insulin receptor [3]): remained at a comparable level; also recorded: comparable level of motility arrest | reduction in mean velocity (motility) of transferred 4F7 T cells (insulin receptor [3]): the magnitude of the reduction was significantly smaller than with PBS; also recorded: partial reduction of the 4F7 T cell motility | ability of ConA-activated macrophages to present insulin (insulin receptor [4]): impaired

fluorochrome-labelled B:9-23: Alexa Fluor 488-conjugated B:9-23 peptide (SHLVEALYLVCGERG; also: Alexa Fluor 488-conjugated (position not given here))
display by APCs in spleen (I-A^g7-expressing APCs): rapidly displayed by I-A^g7-expressing APCs in spleen | display by APCs in thymus (I-A^g7-expressing APCs): not in thymus

insulin: insulin (19278; Sigma) used as antigen
need for internal processing for T cell reactivity [1]: require internal processing
